Measurements published in ChEMBL document CHEMBL1201862, “PubChem BioAssay data set” (2004).
Active and inactive are the calls of the source.

Legend:
[1] = biological target: T1, Heat shock factor protein 1 (Mus musculus, UniProt P38532); experiment: enhancement of HSF1-driven luciferase signal – cell-based, NIH3T3, luminescence, dose retest, confirmation (AID 435004); format: functional;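 also: stress induced by proteasome inhibitor MG132 added 30 min after compound; luciferase reporter driven by HSF1 response element in NIH3T3 cells; actives raise luminescence as potentiators of the MG132 stress response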
T1 sequence (P38532 whole entry): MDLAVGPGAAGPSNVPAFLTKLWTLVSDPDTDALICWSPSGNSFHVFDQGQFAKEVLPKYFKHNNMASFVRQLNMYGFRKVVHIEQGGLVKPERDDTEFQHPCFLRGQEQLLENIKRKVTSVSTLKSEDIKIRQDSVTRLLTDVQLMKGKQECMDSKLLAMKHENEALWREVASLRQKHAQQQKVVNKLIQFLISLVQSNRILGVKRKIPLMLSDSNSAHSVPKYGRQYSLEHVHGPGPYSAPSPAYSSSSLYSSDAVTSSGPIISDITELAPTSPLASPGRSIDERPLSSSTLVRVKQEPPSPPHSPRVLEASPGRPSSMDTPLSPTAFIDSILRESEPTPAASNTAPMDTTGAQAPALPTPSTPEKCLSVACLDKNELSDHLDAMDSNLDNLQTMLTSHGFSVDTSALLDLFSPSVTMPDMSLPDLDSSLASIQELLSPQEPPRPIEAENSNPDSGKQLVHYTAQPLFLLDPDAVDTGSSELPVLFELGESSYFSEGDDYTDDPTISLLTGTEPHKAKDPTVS

[2] = viability of uninfected HEp-2 cells – cell-based, HTS, cytotoxicity control for RSV inhibitor project, dose response (AID 2410); format: functional; settings: human respiratory syncytial virus
[3] = biological target: T2, Microphthalmia-associated transcription factor (Homo sapiens, UniProt O75030); experiment: reducers of TRPM1 reporter luminescence, concentration series – cell-based, SK-MEL-5, cherry-picked, set 3, MITF inhibitor project, dose response (AID 493073); format: functional;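 also: SK-MEL-5 melanoma cells with luciferase driven by the MITF target TRPM1 promoter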
T2 sequence (O75030 whole entry): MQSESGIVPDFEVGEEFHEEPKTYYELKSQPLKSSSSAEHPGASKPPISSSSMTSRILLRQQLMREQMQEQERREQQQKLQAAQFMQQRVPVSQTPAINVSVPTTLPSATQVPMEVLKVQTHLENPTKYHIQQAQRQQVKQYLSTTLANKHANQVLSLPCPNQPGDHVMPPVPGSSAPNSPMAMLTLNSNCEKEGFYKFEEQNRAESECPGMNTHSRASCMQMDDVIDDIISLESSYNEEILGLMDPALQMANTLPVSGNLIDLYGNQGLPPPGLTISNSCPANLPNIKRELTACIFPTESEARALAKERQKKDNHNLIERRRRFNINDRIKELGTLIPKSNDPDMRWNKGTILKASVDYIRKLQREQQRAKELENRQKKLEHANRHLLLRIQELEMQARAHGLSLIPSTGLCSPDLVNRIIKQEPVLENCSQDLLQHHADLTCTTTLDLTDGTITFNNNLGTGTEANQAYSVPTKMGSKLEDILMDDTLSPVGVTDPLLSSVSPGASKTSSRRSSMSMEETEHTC

[4] = biological target: T3, Replicative DNA helicase DnaB (Mycobacterium tuberculosis, UniProt P9WMR3); experiment: DnaB intein splicing inhibitors, dose response, biochemical, cell-free fluorescence (AID 449749); format: functional
T3 sequence (P9WMR3 whole entry): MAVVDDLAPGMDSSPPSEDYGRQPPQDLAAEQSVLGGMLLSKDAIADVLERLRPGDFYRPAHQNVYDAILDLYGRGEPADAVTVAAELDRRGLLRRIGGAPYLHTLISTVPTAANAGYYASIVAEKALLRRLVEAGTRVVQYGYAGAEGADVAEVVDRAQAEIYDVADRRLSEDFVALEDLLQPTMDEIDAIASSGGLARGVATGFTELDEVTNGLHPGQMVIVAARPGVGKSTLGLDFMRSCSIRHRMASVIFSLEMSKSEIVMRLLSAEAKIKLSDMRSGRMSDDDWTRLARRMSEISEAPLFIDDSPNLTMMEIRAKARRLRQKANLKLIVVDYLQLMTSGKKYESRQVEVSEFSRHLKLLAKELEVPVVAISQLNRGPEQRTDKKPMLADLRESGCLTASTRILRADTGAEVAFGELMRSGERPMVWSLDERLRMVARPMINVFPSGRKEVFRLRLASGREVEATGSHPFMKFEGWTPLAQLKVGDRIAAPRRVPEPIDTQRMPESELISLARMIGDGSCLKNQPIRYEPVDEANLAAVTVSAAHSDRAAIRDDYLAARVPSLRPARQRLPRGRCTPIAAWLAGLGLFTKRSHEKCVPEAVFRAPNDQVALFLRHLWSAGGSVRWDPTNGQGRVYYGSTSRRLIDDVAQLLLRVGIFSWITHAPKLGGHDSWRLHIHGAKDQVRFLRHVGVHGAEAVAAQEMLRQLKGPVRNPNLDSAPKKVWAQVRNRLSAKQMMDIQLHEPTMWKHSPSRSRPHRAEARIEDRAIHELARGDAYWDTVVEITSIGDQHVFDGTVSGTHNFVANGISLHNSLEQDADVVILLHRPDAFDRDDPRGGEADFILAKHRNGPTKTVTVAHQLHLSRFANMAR

Protein RecA = biological target: T4, Protein RecA (Mycobacterium tuberculosis, UniProt P9WHJ3); experiment: Fluorescence Cell-Free Homogeneous Dose Retest to Identify Inhibitors of RecA-Intein Splicing Activity. [Related pubchem assays (depositor defined):AID2097, AID2223, AID489010, AID492950]; format: functional
T4 sequence (P9WHJ3 whole entry): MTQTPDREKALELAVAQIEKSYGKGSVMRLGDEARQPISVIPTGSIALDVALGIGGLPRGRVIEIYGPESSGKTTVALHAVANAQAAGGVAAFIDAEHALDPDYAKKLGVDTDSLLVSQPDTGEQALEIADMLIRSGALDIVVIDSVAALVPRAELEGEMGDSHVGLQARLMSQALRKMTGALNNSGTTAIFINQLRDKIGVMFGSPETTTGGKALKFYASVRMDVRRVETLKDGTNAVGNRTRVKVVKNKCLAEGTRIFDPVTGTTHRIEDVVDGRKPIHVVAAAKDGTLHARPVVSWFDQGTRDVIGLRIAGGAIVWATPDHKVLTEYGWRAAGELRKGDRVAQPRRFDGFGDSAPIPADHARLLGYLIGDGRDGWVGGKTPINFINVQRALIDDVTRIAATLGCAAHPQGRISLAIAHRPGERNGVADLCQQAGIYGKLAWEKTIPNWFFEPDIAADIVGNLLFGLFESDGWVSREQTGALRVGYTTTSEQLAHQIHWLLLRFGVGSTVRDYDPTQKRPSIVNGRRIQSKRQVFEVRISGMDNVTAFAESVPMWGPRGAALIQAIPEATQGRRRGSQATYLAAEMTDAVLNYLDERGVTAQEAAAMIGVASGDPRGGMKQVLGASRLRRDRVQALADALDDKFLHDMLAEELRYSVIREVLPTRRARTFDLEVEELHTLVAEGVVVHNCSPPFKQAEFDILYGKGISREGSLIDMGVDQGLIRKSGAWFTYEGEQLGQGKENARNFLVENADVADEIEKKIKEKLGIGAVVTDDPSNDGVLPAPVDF

Vero = experiment: cells; format: functional; settings: Chlorocebus sabaeus
cells = format: functional
[5] = fluconazole-exposed Candida albicans growth modulators – fluorescence, retest, confirmation (AID 2467); format: functional, cell-based
[6] = NIH-3T3 fibroblast cytotoxicity, dose response, cytotoxicity control, cell-based, fluorescence, Alamar Blue, secondary assay (AID 2327); format: functional;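 also: NIH-3T3 mouse fibroblasts cultured with fluconazole at 8 µg/mL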
Cytochrome P450 2D6 = Cytochrome P450 2D6 (Homo sapiens, UniProt P10635);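 also: CYP2D6 member of a cytochrome P450 panel assay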
Cytochrome P450 2D6, sequence (P10635 whole entry, the tested form may be a part): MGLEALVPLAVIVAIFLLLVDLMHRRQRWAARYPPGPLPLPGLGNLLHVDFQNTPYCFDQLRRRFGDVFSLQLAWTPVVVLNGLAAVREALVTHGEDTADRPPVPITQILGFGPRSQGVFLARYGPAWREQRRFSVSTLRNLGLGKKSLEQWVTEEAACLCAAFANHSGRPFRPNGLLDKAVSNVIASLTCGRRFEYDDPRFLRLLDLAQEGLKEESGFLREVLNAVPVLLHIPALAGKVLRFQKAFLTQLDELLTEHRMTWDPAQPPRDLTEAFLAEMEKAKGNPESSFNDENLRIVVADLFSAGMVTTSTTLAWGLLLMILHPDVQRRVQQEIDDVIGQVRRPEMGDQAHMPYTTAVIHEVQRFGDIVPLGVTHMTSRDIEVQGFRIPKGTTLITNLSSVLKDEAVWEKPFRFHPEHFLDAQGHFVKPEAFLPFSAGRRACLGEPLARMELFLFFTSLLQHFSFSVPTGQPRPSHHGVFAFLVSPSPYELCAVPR

[7] = HIV-1 AD8 envelope cell-cell fusion blockers – cherry-pick, dose response (AID 652062); format: functional, cell-based;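 also: luciferase signal from cell-cell fusion driven by HIV-1 clade B AD8 Env; potency is for inhibitors of fusion seen as a drop in luminescence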
H9c2 = experiment: cells; format: functional, cell-based; settings: Rattus norvegicus, H9c2, Myocardium;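 also: confirmatory concentration-response retest of ultra-high-throughput screening hits for modulation of myocardial damage; cell death induced by hydrogen peroxide oxidative stress; compound pretreatment for 60 min then peroxide exposure for 2 h; potency is for protecting the cells against peroxide damage rather than for killing them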
[8] = NIH3T3 cell viability loss – ATP luminescence, mouse fibroblasts, counter-screen, dose response (AID 2010); format: functional, cell-based;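 also: cells exposed to compound for about 90 hours before reading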
[9] = Trypanosoma cruzi growth suppression in host cells – NIH3T3 host cells, beta-gal luminescence, confirmation (AID 2044); format: functional, cell-based;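 also: intracellular parasites grown in NIH/3T3 mouse fibroblasts as host cells; luminescent beta-galactosidase reporter signal from transgenic T. cruzi replicating inside host cells; inhibitors lower the luminescence signal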

O=C(CCCSc1nc2ccccc2[nH]1)N1CCN(c2ccc([N+](=O)[O-])cc2)CC1
EC50 [1]: > 260 µM (inactive)

CCCCN1CCc2c1nc1ccc(Br)cc1c2N
CC50 [2]: 14.1 µM (active) | AC50 [3]: 12.2 µM (active)

O=C(NCc1ccco1)/C(=C/c1cccc(C(F)(F)F)c1)c1nc2ccccc2[nH]1
AC50 [4]: > 380 µM (inactive) | EC50 (Protein RecA): 54.4 µM (active) | CC50 (Vero): 13.7 µM (active)

O=C(OCc1nc2ccccc2s1)c1ccc(Br)o1
IC50 (cells): 11.9 µM (active)

O=C(/C=C/c1ccc([N+](=O)[O-])s1)N1CCCCC1
AC50 [3]: 4.16 µM (active)

O=C(NCC1(c2ccccc2)CCCC1)C1(c2ccccc2)CCCC1
AC50 [4]: 10 µM (active) | EC50 (Protein RecA): 53.3 µM (active)

Cc1cccc(N2C(=O)NC(=O)/C(=C/Nc3ccccc3N)C2=O)c1
EC50 [5]: > 38 µM (not active) | EC50 [6]: > 160 µM (inactive)

Cc1cccc(NC(=O)CCSc2nnc(Cc3ccccc3)o2)c1
IC50 (cells): 39.8 µM (active)

CC(c1ccc(Cl)cc1)n1c(S)nnc1-c1ccc2ccccc2n1 (configuration not stated)
AC50 (Cytochrome P450 2D6): 39.8 µM (inconclusive) | EC50 [5]: 4.24 µM (active) | EC50 [6]: > 160 µM (inactive)

CC(C)CC(=O)NC(=S)NNC(=O)c1ccc([N+](=O)[O-])cc1
CC50 (Vero): 24.6 µM (active)

Cn1c(CN2CCCCC2)nc2cc(NC(=O)c3ccc(Cl)cc3)ccc21
AC50 (Cytochrome P450 2D6): 0.0316 µM (inconclusive) | AC50 [7]: 28.7 µM (active)

O=C(Cn1[nH]c(=O)c2ccccc2c1=O)NC1CCCCCC1
IC50 (H9c2): 25.3 µM (active)

O=C(Nc1nc2ccccc2[nH]1)c1ccc(OC(F)F)cc1
EC50 [1]: > 260 µM (inconclusive)

CCN(C(=O)c1ccc2c(Cl)c3c(nc2c1)CCC3)c1ccc(C)c(C)c1
AC50 [4]: 14.1 µM (active) | EC50 (Protein RecA): 2.59 µM (active)

CCOC(=O)c1sc(C)c2c1NC(C)(c1cccc3ccccc13)NC2=O (configuration not stated)
EC50 [1]: > 260 µM (inactive)

Clc1ccccc1-c1nc2ccccc2c2nc3ccccc3n12
EC50 [5]: 12.2 µM (active) | EC50 [6]: > 150 µM (inactive)

O=C(CCl)N1CCN(S(=O)(=O)c2ccc3ccccc3c2)CC1
AC50 [4]: 12.7 µM (active) | EC50 (Protein RecA): 1.58 µM (active)

Cc1ccc(C)c(S(=O)(=O)Nc2ccccc2C(=O)Nc2cc(C)on2)c1
EC50 [5]: 1.28 µM (active) | EC50 [6]: > 160 µM (inactive)

Cn1c(=O)oc2cc(S(=O)(=O)N3CCCCC3)ccc21
EC50 [1]: > 260 µM (inactive)

Cc1ccccc1NC(=O)CSc1nc(Nc2ccccc2)nc(N2CCOCC2)n1
EC50 [1]: > 260 µM (inactive)

Oc1nnc(CNc2ccc(C(F)(F)F)cc2)c2ccccc12
IC50 (H9c2): 27.5 µM (active)

CC(=O)NC(=O)NC1OC(=O)C(Cl)=C1Cl (configuration not stated)
EC50 [1]: > 260 µM (inconclusive)

Cn1c(/C=C/c2cccc([N+](=O)[O-])c2)c([N+](=O)[O-])c(=O)n(C)c1=O
CC50 (Vero): 22.7 µM (active) | EC50 [5]: 7.56 µM (active) | EC50 [6]: 58.4 µM (active) | CC50 [2]: 36 µM (active) | AC50 [3]: 27.8 µM (active)

CSc1nn(-c2ccc(C(=O)OCC(=O)NC(=O)NC(C)C)cc2)c(=S)s1
IC50 (cells): 13.2 µM (active)

CC(OC(=O)Cc1nnc(O)c2ccccc12)C(=O)Nc1cc(Cl)cc(Cl)c1 (configuration not stated)
IC50 (H9c2): 20.8 µM (active)

COc1cc(C(=O)NNC(=O)c2ccc3ccccc3n2)cc(OC)c1OC
IC50 (H9c2): 8.15 µM (active)

O=C(NCCc1ccc(F)cc1)C(=O)Nc1cc2c3c(c1)CC(=O)N3CCC2
IC50 (H9c2): > 79 µM (inactive)

CC(=O)Nc1ccc(C(=O)N/N=C/c2ccccc2OC(=O)c2ccc(Cl)cc2)cc1
IC50 (H9c2): 8.26 µM (active)

CCOc1cc(/C=N\NC(=O)c2ccc(NC(=O)C(C)(C)C)cc2)ccc1OC(=O)c1cccc(C)c1
IC50 (H9c2): > 79 µM (inactive)

O=C(N/N=C\C=C\c1ccco1)c1cncc(Br)c1
IC50 (cells): > 50 µM (active)

Cc1ccsc1/C=N/NC(=O)c1ccncc1
IC50 (cells): 3.02 µM (active)

COc1cccc2s/c(=N/C(=O)CS(=O)(=O)c3ccc(Cl)cc3)n(C)c12
EC50 [8]: > 60 µM (not active) | EC50 [5]: 2.16 µM (active) | EC50 [6]: > 160 µM (inactive) | EC50 [9]: 0.34 µM (active)

Cc1c(O)cccc1C(=O)N[C@@H](CSc1ccccc1)[C@H](O)CN1C[C@H]2CCCC[C@H]2C[C@H]1C(=O)NC(C)(C)C
CC50 (Vero): > 25 µM (active)
